The source of these data is patent publication US20230295130A1, “COMPOUND USEFUL AS CDK7 KINASE INHIBITOR AND USE THEREOF” (TYK MEDICINES, INC., priority 2020, published 2023).

SMILES strings stand for the structures. Bounds are passed on as bounds.

Assay [1] concerns ovarian cancer cells A2780. As to the kind of experiment: Cell anti-proliferation experiment, MTT (Table 2). As to conditions: Homo sapiens, A2780, 72 h, incubate 3 days. Format: cell-based, human. The text has this:
(§1) Human breast cancer cells MDA-MB 231, MDA-MB453, ovarian cancer cells OVCAR3 and A2780, colorectal cancer cells HCT-116 and WiDr, and lung cancer cell Calu-6 were purchased from BNCC. DMEM medium (Bio-Channel), DMSO (dimethyl sulfoxide), MTT (thiazole blue), 0.25% EDTA-Tripsin (pancreatin digestive juice), 1×PBS (phosphate buffer, PH7.2), 96-well plate (Corning), fetal bovine serum (FBS), 10,000 U/mL penicillin-G/streptomycin, high-speed freezing centrifuge (EPPENDORF 5810R), enzyme-linked immunosorbent assay (Tecan Spark).
(§2) 1. Cell Plating • A) Tumor cells were cultured to 80-90% density in DMEM (high sugar, containing 10% FBS and 100 U/mL penicillin-G/streptomycin) at 37° C., 5% CO2 and saturated humidity. • B) The culture medium was removed from the 10 cm culture dish. • C) Cells were washed with 10 ml 1×PBS. • D) 4 ml of 0.25% EDTA-Tripsin was added to an incubator to digest pancreatin for 5 minutes at 37° C. and 5% CO2, transferred to a 15 ml centrifuge tube, centrifuged for 5 minutes at 200 g, and supernatant was discarded to obtain cell precipitation. • E) The cell precipitation was resuspended with 4 ml DMEM medium, counted and adjusted to 50,000 cells/ml. • F) Cell suspension was added to a 96-well plate with a volume of 100 μL per well and cultured overnight in a 5% CO2 incubator at 37° C.
(§3) Compound Dilution • A) Preparing the tested compound gradient dilution solution: the tested compounds were prepared into 10 mM and 1 mM storage solution respectively. Firstly, 1 μl and 0.5 μl of 10 mM storage solution were dissolved in 1 ml of DMSO-free culture solution, respectively, to obtain diluted compounds with concentrations of 10 and 5 μM. Then, 1.5 μl of 1 mM storage solution was dissolved in 1.5 ml of DMSO-free culture solution to obtain a dilution compound with a concentration of 1 μM, and then diluted with a 3-fold continuous gradient with […] culture solution for a total of 7 concentrations. The concentrations of all 10 diluted compounds mentioned above were as follows: • 10 μM, 5 μM, 1 μM, 333.33 nM, 111.11 nM, 37.03 nM, 12.35 nM, 4.15 nM, 1.37 nM, 0.46 nM • B) After full mixing, 100 μL of culture compound solution was taken to replace the culture solution in the cell culture plate, with 4 duplicated wells at each concentration; • C) The cells were transferred to incubator to incubate for 3 days.
(§4) 3. MTT Detection • A) The cell culture plate was taken out and added with 5 mg/ml MTT 10 μL in the biosafety cabinet; • B) The cell culture plate was put back into the incubator and continued to incubate for 3 hours; • C) The cell culture plate was taken out to remove the culture solution, 100 μL isopropanol (containing 0.4 mM HCl, 0.1% NP-40) was added, shaking at room temperature for 30 minutes; • D) The absorbance value was measured at 570 nm on TECAN enzyme linked immunosorbent assay.

In assay [2] the test system is colorectal cancer cells WiDr. Kind of assay: Cell anti-proliferation experiment, MTT (Table 2). Format: cell-based, human. As to conditions: Homo sapiens, WiDr, 72 h, incubate 3 days.
Description: as §1, §2, §3, §4

Assay [3] relates to ovarian cancer cells OVCAR3. As to the kind of experiment: Cell anti-proliferation experiment, MTT (Table 2). It is filed as cell-based. The conditions noted are these: Homo sapiens, OVCAR-3, 72 h, incubate 3 days.
Description: as §1, §2, §3, §4

In assay [4] the test system is colorectal cancer cells HCT-116. As to the kind of experiment: Cell anti-proliferation experiment, MTT (Table 2). As to conditions: Homo sapiens, HCT-116, 72 h, incubate 3 days. Format: cell-based.
Description: as §1, §2, §3, §4

A further assay has as its system lung cancer cell Calu-6. Kind of assay: Cell anti-proliferation experiment, MTT (Table 2). Format: cell-based. The conditions noted are these: Homo sapiens, Calu-6, 72 h, incubate 3 days.
Description: as §1, §2, §3, §4

Assay [5] has as its system breast cancer cells MDA-MB453. As to the kind of experiment: Cell anti-proliferation experiment, MTT (Table 2). It is filed as cell-based. The conditions noted are these: Homo sapiens, MDA-MB-453, 72 h, incubate 3 days.
Description: as §1, §2, §3, §4

Assay [6] concerns breast cancer cells MDA-MB 231. As to the kind of experiment: Cell anti-proliferation experiment, MTT (Table 2). As to conditions: Homo sapiens, MDA-MB-231, 72 h, incubate 3 days. It is filed as cell-based.
Description: as §1, §2, §3, §4

Assay [7] addresses CDK12 (aa686-1082)/Cyclin K (Homo sapiens (Human), UniProt Q9NYV4). Kind of assay: Enzyme activity test, mobility shift assay (Table 1). It is filed as biochemical. The conditions noted are these: 2 mM ATP; read-out: CDK12 kinase IC50. In a few lines:
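Mobility shift kinase assay on CDK9/Cyclin T1 and CDK12 (aa686-1082)/Cyclin K. Ten-point 3-fold dilution series started from a 0.5 mM intermediate solution in DMSO, with compound–enzyme pre-incubation of 0 or 60 min, in duplicate. Staurosporine served as positive control.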

For another assay, the target named is CDK9/Cyclin Tl (Homo sapiens (Human), UniProt P50750). The assay is described as above. It is filed as biochemical. As to conditions: 2 mM ATP; read-out: CDK9 kinase IC50. In a few lines:
(§5)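 Human CDK9/Cyclin T1 and CDK2/Cyclin E1 activity measured by mobility shift assay. Compounds tested as 10-point, 3-fold dilution series starting at 0.5 mM (diluted from 10 mM DMSO stock), in duplicate, with 0 min or 60 min compound–enzyme pre-incubation.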

The target of the next assay is CDK2/Cyclin El (Homo sapiens (Human), UniProt P24941). Described as above. It is filed as biochemical. As to conditions: 2 mM ATP; read-out: CDK2 kinase IC50. A digest of the protocol:
as §5

The target in assay [8] is CDK7/Cyclin H/MAT1 kinase (Homo sapiens (Human), UniProt P50613). The assay is described as above. The conditions noted are these: 2 mM ATP; pre-incubated 0 and 60 minutes. It is filed as biochemical.
Chain of CDK7/Cyclin H/MAT1 kinase (P50613 whole entry): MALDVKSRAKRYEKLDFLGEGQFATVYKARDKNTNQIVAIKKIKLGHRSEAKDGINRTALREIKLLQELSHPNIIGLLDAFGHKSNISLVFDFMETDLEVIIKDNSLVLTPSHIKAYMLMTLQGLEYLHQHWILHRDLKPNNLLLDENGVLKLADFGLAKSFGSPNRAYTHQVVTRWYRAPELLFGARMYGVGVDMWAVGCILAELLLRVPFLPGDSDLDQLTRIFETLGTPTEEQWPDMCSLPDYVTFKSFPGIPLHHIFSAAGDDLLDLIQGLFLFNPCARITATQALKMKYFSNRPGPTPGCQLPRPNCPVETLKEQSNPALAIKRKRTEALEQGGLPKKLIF
Chain of CDK7/Cyclin H/MAT1 kinase (P51946 whole entry partner): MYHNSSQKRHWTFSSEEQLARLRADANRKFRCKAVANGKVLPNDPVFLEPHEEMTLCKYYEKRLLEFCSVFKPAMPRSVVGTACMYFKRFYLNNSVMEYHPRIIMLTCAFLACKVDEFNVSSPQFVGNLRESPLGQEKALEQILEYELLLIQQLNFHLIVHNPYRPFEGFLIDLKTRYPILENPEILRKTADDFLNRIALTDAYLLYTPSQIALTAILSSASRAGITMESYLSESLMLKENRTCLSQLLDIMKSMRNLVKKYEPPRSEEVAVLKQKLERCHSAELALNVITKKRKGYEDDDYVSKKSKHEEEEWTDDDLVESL
Chain of CDK7/Cyclin H/MAT1 kinase (P51948 whole entry partner): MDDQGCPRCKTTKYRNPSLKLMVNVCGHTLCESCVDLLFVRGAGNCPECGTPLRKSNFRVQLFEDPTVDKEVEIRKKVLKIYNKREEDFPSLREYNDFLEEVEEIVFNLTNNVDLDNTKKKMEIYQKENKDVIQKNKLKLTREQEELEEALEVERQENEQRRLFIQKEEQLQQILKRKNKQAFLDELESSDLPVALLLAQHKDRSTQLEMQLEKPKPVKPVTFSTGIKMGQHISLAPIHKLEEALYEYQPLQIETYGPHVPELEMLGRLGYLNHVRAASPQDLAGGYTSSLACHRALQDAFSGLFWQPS

Chain of CDK9/Cyclin Tl (P50750 whole entry): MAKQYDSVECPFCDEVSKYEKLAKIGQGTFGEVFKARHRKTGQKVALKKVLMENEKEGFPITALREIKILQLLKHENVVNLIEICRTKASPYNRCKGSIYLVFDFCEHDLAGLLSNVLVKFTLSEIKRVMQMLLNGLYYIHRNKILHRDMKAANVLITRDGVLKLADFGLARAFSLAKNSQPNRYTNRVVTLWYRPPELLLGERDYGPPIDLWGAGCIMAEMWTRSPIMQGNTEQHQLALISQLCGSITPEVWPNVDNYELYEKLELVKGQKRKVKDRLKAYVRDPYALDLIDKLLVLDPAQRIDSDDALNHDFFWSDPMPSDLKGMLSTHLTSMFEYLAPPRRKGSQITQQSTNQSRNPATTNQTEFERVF
Chain of CDK9/Cyclin Tl (O60563 whole entry partner): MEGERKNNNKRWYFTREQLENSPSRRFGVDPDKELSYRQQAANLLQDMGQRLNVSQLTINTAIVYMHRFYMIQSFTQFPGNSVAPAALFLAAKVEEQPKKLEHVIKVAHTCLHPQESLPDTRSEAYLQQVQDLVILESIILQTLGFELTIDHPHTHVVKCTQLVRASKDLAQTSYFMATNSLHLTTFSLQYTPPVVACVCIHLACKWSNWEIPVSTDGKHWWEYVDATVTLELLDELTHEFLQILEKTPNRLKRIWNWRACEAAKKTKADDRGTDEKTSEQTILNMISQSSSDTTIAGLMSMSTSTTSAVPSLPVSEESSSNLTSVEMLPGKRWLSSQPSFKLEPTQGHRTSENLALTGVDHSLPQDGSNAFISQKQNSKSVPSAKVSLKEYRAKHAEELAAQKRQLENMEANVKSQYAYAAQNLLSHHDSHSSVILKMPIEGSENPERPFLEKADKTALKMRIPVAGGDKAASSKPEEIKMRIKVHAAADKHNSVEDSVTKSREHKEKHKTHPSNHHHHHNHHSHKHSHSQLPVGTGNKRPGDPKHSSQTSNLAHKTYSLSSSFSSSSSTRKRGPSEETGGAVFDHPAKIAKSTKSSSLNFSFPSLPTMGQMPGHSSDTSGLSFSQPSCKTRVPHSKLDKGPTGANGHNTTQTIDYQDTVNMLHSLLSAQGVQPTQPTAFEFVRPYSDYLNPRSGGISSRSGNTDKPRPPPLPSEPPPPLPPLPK
Chain of CDK12 (aa686-1082)/Cyclin K (Q9NYV4 686-1082): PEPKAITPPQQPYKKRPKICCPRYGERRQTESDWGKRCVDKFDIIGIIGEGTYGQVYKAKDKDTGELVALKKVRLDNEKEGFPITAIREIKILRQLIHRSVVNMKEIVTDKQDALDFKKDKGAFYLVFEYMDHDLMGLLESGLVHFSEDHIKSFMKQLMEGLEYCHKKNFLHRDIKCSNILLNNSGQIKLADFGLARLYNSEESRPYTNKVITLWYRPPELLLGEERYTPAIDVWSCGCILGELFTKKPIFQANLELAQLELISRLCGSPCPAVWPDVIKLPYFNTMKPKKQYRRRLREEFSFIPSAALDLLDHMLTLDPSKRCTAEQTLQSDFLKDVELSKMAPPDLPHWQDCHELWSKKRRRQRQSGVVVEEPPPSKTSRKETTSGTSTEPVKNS
Chain of CDK12 (aa686-1082)/Cyclin K (O75909 whole entry partner, the tested form may be a part): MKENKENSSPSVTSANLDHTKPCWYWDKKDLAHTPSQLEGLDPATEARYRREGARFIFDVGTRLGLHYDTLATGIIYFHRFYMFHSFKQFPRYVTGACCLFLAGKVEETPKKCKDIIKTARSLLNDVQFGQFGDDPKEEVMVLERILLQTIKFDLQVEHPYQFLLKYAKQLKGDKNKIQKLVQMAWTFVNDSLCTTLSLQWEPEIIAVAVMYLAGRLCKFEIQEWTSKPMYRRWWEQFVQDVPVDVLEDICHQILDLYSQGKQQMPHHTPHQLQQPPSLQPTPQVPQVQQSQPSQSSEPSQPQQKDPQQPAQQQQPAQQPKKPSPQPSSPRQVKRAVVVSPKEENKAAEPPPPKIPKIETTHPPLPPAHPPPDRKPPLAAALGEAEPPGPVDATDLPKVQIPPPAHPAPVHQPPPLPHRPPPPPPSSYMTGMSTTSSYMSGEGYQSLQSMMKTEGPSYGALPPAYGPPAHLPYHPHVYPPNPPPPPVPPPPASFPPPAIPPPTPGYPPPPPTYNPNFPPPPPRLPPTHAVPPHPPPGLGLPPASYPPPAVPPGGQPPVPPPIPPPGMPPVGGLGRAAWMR

Take `CC1(C)CC[C@H](Nc2ncc(C(F)(F)F)c(-c3c[nH]c4c(P(C)(C)=O)c(C#N)ccc34)n2)CN1` [Compound 101, reference compound]: the concentration for half-maximal inhibition (IC50) is 8.76 nM in assay [1]; 11.2 nM in assay [2]; 246 nM in assay [3]; 88.8 nM in [4]; 207 nM in the assay on lung cancer cell Calu-6; 112 nM in [5]. This compound came in with an IC50 in assay [6] of 1660 nM.
For `COC(=O)Nc1ccc2c(-c3nc(N[C@H]4CCCNC4)ncc3C(F)(F)F)c[nH]c2c1Br` [Example T-01], the IC50 in [7] was greater than 500 nM; on CDK9/Cyclin Tl, greater than 500 nM; at CDK2/Cyclin El, greater than 500 nM; in assay [1], 7.97 nM; in assay [2] it was 12.2 nM; in assay [8], less than 50 nM. Besides, the IC50 in assay [3] amounted to 41.8 nM; in assay [4], 62.5 nM; with lung cancer cell Calu-6, 68.9 nM; in assay [5], 51.9 nM; in assay [6], 145 nM.
Regarding `COC(=O)Nc1ccc2c(-c3nc(N[C@H]4CCCNC4)ncc3C(F)(F)F)c[nH]c2c1OC` [Example T-37], the IC50 in [7] is greater than 500 nM; at CDK9/Cyclin Tl it was greater than 500 nM; at CDK2/Cyclin El, 50 to 500 nM; in assay [1], 7.65 nM; in assay [2] it was 13.8 nM; in assay [8] it was less than 50 nM. Also, the IC50 in [3] was determined as 25.1 nM; in assay [4], 47.8 nM; in the assay with lung cancer cell Calu-6 it was 40.1 nM; in assay [5], 10.8 nM; in assay [6], 52.7 nM.
Take `CCOC(=O)Nc1ccc2c(-c3nc(N[C@H]4CCCNC4)ncc3C(F)(F)F)c[nH]c2c1Br` [Example T-42]: the concentration for half-maximal inhibition (IC50) was greater than 500 nM in assay [7]; greater than 500 nM on CDK9/Cyclin Tl; greater than 500 nM at CDK2/Cyclin El; 12.3 nM in [1]; 22.2 nM in assay [2]; less than 50 nM in assay [8]. The IC50 is 98.4 nM in assay [3]; 137 nM in assay [4]; 110 nM with lung cancer cell Calu-6; 77.9 nM in [5]; 181 nM in [6].
As to `COC(=O)Nc1ccc2c(-c3nc(N[C@H]4CCCNC4)ncc3C(F)(F)F)c[nH]c2c1C` [Example T-52], the IC50 in assay [7] was greater than 500 nM; at CDK9/Cyclin Tl it was greater than 500 nM; at CDK2/Cyclin El it was greater than 500 nM; in assay [1] it was 16.1 nM; in assay [2], 28.3 nM; in assay [8] it was less than 50 nM. Further, the IC50 in assay [3] is 51.1 nM; in assay [4], 89.2 nM; with lung cancer cell Calu-6, 107 nM; in assay [5], 17.7 nM; in assay [6], 119 nM.
On to `COCCOC(=O)Nc1ccc2c(-c3nc(N[C@H]4CCCNC4)ncc3C(F)(F)F)c[nH]c2c1Br` [Example T-62], for which the IC50 in assay [7] was greater than 500 nM; at CDK9/Cyclin Tl, greater than 500 nM; on CDK2/Cyclin El, greater than 500 nM; in assay [1], 12.5 nM; in [2], 6.35 nM; in [8] it was less than 50 nM. Also, the IC50 in [3] amounted to 38.8 nM; in [4], 55.4 nM; in the assay on lung cancer cell Calu-6, 57 nM; in assay [5], 23.8 nM; in assay [6], 75.5 nM.
Consider `COC(=O)Nc1ccc2c(-c3nc(N[C@H]4CCCNC4)ncc3C(F)(F)F)c[nH]c2c1Cl` [Example T-79], for which the IC50 is greater than 500 nM in [7]; greater than 500 nM on CDK9/Cyclin Tl; greater than 500 nM on CDK2/Cyclin El; 14.2 nM in [1]; 16.3 nM in assay [2]; less than 50 nM in assay [8]. The half-maximal inhibitory concentration (IC50) in assay [3] was 69.8 nM; in [4], 35.3 nM; in the assay on lung cancer cell Calu-6, 114 nM; in [5], 53.1 nM; in assay [6], 144 nM.
